The source of these data is PubChem BioAssay AID1205 (EPA DSSTox, 2008).

Activity calls are given as the source filed them.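 The calls were made as follows: active = tumour findings in long-term animal cancer tests in more than one sex, species or organ; inactive = no tumour finding and more than one negative test.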

A short description of the series: DSSTox (CPDBAS) Carcinogenic Potency Database Summary MultiCellCall Results. The following applies: animal carcinogenicity bioassays, multi-cell call summary. The method in brief:
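ActivityScore sums 50 for multispecies, 30 for multisex and 20 for multisite positivity. Based on the most positive experiment per sex-species across standardised chronic rodent and other animal cancer tests.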
For `COC(=O)[C@H]1[C@H]2C[C@@H]3c4[nH]c5cc(OC)ccc5c4CCN3C[C@H]2C[C@@H](OC(=O)c2cc(OC)c(OC)c(OC)c2)[C@@H]1OC`, the outcome is “active; multisite active; multisex active; multispecies active”.
For the compound `ClC(Cl)(Cl)C(Cl)(Cl)Cl`, the outcome was “active; multisite active; multisex active; multispecies active”.
Under `O=C1OC(c2ccc(O)cc2)(c2ccc(O)cc2)c2ccccc21` stands “active; multisite active; multisex active; multispecies active”; under `O=S(=O)(O)NC1CCCCC1`, “active; multisite active; multisex active”.
To `C#CC(OC(N)=O)(c1ccccc1)c1ccc(Cl)cc1` (configuration not stated) belongs “active; multisite active”.
For `c1ccoc1`, the outcome is “active; multisite active; multisex active; multispecies active”.
Regarding `O=C1c2ccccc2C(=O)c2c(O)cccc21`, the outcome was “active; multisite active”.
Consider `Cc1cccc2cccnc12`, for which the outcome is “inactive; multisex inactive”.
On to `NC(=O)CCCCn1ccc(NC(N)=NCC(F)(F)F)n1`, for which the outcome is “active; multisex active; multispecies active”.
To `C=CCN(CC=C)N=O` belongs “active; multisex active; multispecies active”; to `Cc1cc(O)c2c(c1O)C(=O)C13C(=C2O)C(=O)C2C(O)C1C1C(O)C3C(=O)C3=C(O)c4c(O)cc(C)c(O)c4C(=O)C321` (configuration not stated), “active; multisex active”.
Under `O=NN1CCCCC1C(=O)O` (configuration not stated) stands “inactive; multisex inactive”; under `O.O=S(=O)([O-])[O-].[Mn+2]`, “inactive; multisex inactive; multispecies inactive”; under `CCC(C)c1cc([N+](=O)[O-])cc([N+](=O)[O-])c1O` (configuration not stated), “inactive; multisex inactive”.
Under `CCCCN(CCCC)C(=S)[S-].CCCCN(CCCC)C(=S)[S-].[Ni+2]` stands “inactive; multisex inactive”; under `C=CCl`, “active; multisite active; multisex active; multispecies active”; under `CN(C)Nc1nc(-c2ccc([N+](=O)[O-])o2)cs1`, “active; multisite active”.
Regarding `O=NN1CCN(N=O)CC1`, the outcome was “active; multisex active”.
Under `CNC[C@H](O)c1cccc(O)c1` stands “inactive; multisex inactive; multispecies inactive”; under `CNC(=O)O/N=C(\SC)C(=O)N(C)C`, “inactive; multisex inactive; multispecies inactive”.
Under `CC(=O)Nc1nc(-c2ccc([N+](=O)[O-])o2)cs1` stands “active; multisite active; multisex active; multispecies active”; under `CC1SC(C)N(N=O)C(C)S1` (configuration not stated), “active; multisite active”; under `O=S(=O)(c1ccc(Cl)cc1)c1cc(Cl)c(Cl)cc1Cl`, “inactive; multisex inactive”.
Under `O=C/C=C/c1ccccc1` stands “inactive; multisex inactive; multispecies inactive”.
Turning to `CCNC(=O)N(CCO)N=O`, the outcome is “active; multisite active; multisex active”.
For the compound `CN(C)c1ccc(Cc2ccc(N(C)C)cc2)cc1`, the outcome is “active; multisite active; multisex active; multispecies active”.
To `COc1cc(-c2ccc(N=Nc3c(S(=O)(=O)O)cc4cc(S(=O)(=O)O)cc(N)c4c3O)c(OC)c2)ccc1N=Nc1c(S(=O)(=O)O)cc2cc(S(=O)(=O)O)cc(N)c2c1O` belongs “active; multisite active; multisex active”.
To `CC(Cc1ccccc1)NN` (configuration not stated) belongs “inactive; multisex inactive”; to `Nc1ccc(N)c(Cl)c1`, “inactive; multisex inactive; multispecies inactive”; to `Nc1nnc(-c2ccc([N+](=O)[O-])o2)s1`, “active; multisite active”.
Under `Nc1c(Cl)cc([N+](=O)[O-])cc1Cl` stands “inactive; multisex inactive”; under `CC(O)CN(CC(C)O)N=O` (configuration not stated), “active; multisite active; multisex active”; under `O=S(=O)(O)c1c(N=Nc2c(O)ccc3ccccc23)ccc2ccccc12`, “inactive; multisex inactive”.
As to `O=Cc1ccccc1`, the outcome was “active; multisex active”.
To `ClCC(Cl)(Cl)Cl` belongs “active; multisex active”; to `F`, “inactive; multisex inactive; multispecies inactive”.
Under `Nc1nc(-c2ccc([N+](=O)[O-])o2)cs1` stands “active; multisite active; multispecies active”; under `CC1=C(C(=O)OC(C)C)C(c2cccc([N+](=O)[O-])c2)C(C(=O)OC2CN(C(c3ccccc3)c3ccccc3)C2)=C(N)N1` (configuration not stated), “inactive; multisex inactive; multispecies inactive”.
To `NNC=O` belongs “active; multisex active”.
As to `C[C@@H]1O[C@@]2(CS1)CN1CCC2CC1`, the outcome is “inactive; multisex inactive”.
Regarding `NC(=O)c1cccnc1`, the outcome was “inactive; multisex inactive”.
Under `CN(N=O)C(=O)NCCC[C@H](N)C(=O)O` stands “active; multisite active; multisex active”; under `CN(N=O)c1ncnc2c1ncn2[C@@H]1O[C@H](CO)[C@@H](O)[C@H]1O`, “active; multisite active; multisex active”.
Under `Nc1ccc2c(n1)[nH]c1ccccc12` stands “active; multisite active; multisex active”; under `CN1C(=O)CN=C(c2ccccc2)c2cc(Cl)ccc21`, “inactive; multisex inactive; multispecies inactive”.
To `Cc1ccccc1[N+](=O)[O-]` belongs “active; multisite active; multisex active; multispecies active”.
For the compound `COC1[C@@H](O[C@@H]2O[C@H](C)[C@@H](O[C@H]3C[C@@](C)(O)[C@H](OC(=O)CC(C)C)[C@H](C)O3)[C@H](N(C)C)[C@H]2O)[C@@H](CC=O)C[C@@H](C)[C@@H](O)/C=C/C=C/C[C@@H](C)OC(=O)C[C@H]1OC(C)=O` (some centres not stated), the outcome was “inactive; multisex inactive”.
Consider `CCN(CC)CC#CC(C)(C)OC(=O)C(O)(c1ccccc1)C1CCCCC1` (configuration not stated), for which the outcome was “inactive; multisex inactive; multispecies inactive”.
Take `O=C/C=C/O`: the outcome was “active; multisite active; multisex active; multispecies active”.
Turning to `O=c1[nH]cc(F)c(=O)[nH]1`, the outcome was “active; multisite active; multisex active”.
Under `C1CCCNCCC1` stands “inactive; multisex inactive”; under `Nc1cccc2c(N)cccc12`, “active; multisite active; multisex active; multispecies active”.
To `Oc1ccc(-c2ccccc2)cc1` belongs “inactive; multisex inactive”; to `O=[N+]([O-])c1cc([N+](=O)[O-])c(Cl)c(Cl)c1Cl`, “inactive; multisex inactive”.
In the case of `CN(C)C(=O)Nc1cccc(C(F)(F)F)c1`, the outcome was “inactive; multisex inactive; multispecies inactive”.
Under `CC(Cl)CCl` (configuration not stated) stands “active; multisex active”; under `CC(=O)CN(CC(C)=O)N=O`, “active; multisite active; multisex active”.
As for `Cn1cc(OCC(O)CNC(C)(C)C)c2ccccc2c1=O` (configuration not stated), the outcome is “inactive; multisex inactive; multispecies inactive”.
To `O=[N+]([O-])c1ccc2c3c(cccc13)CC2` belongs “active; multisite active; multisex active; multispecies active”.
Under `Nc1ccc(-c2ccc(N)c(N)c2)cc1N` stands “active; multisite active; multispecies active”.
Under `CCCc1ccc2c(c1)OCO2` stands “active; multisite active; multisex active; multispecies active”.
For the compound `COc1ccc(C)cc1N`, the outcome was “active; multisite active; multisex active; multispecies active”.
With `Oc1ccc(O)cc1`, the outcome was “active; multisite active; multisex active; multispecies active”.
Under `C#C[C@]1(O)CC[C@H]2[C@@H]3CCc4cc(OC)ccc4[C@H]3CC[C@@]21C` stands “inactive; multisex inactive”; under `S=c1nc[nH]c2nc[nH]c12`, “inactive; multisex inactive”.
Under `Cc1cc2c(nc1N)[nH]c1ccccc12` stands “active; multisite active; multisex active; multispecies active”.
For `O=C1C(c2[nH]c3ccc(S(=O)(=O)O)cc3c2O)=Nc2ccc(S(=O)(=O)O)cc21`, the outcome is “inactive; multisex inactive; multispecies inactive”.
With `CN(C)c1ccc(C(=O)c2ccc(N(C)C)cc2)cc1`, the outcome is “active; multisite active; multisex active; multispecies active”.
As to `[Cl-].[Cl-].[Cl-].[Fe+3]`, the outcome is “inactive; multisex inactive”.
With `CC(C)(C)c1cc([N+](=O)[O-])cc([N+](=O)[O-])c1OS(C)(=O)=O`, the outcome was “inactive; multisex inactive”.
To `O=S(=O)(O)c1ccc(N=Nc2c(O)ccc3cc(S(=O)(=O)O)ccc23)cc1` belongs “inactive; multisex inactive; multispecies inactive”; to `CCCCCc1cc(O)c2c(c1)OC(C)(C)[C@@H]1CCC(C)=C[C@@H]21`, “inactive; multisex inactive; multispecies inactive”; to `[O-][Cl+]O`, “inactive; multisex inactive; multispecies inactive”.
As for `O=[N+]([O-])O`, the outcome is “inactive; multisex inactive”.
As to `O.O.O.O.O.O.O.O.O=S(=O)([O-])[O-].O=S(=O)([O-])[O-].O=S(=O)([O-])[O-].[Cd+2].[Cd+2].[Cd+2]`, the outcome is “inactive; multispecies inactive”.
Under `Nc1ccccc1N` stands “active; multisex active; multispecies active”.
Under `CN(C)C(=O)Nc1ccc(Cl)cc1` stands “active; multisite active”; under `C[C@]12CC[C@H](O)CC1=CC[C@@H]1[C@@H]2CC[C@]2(C)C(=O)CC[C@@H]12`, “active; multisex active”.
To `O=C(O)CNCC(=O)O` belongs “inactive; multisex inactive”; to `C[C@@H]1C/C=C/C=C/C=C/C=C/[C@H](O[C@@H]2O[C@H](C)[C@@H](O)[C@H](N)[C@@H]2O)C[C@@H]2O[C@](O)(C[C@@H](O)C[C@H]3O[C@@H]3/C=C/C(=O)O1)C[C@H](O)[C@H]2C(=O)O`, “inactive; multisex inactive”; to `CC(=O)NN`, “active; multisex active”.
In the case of `Cc1c([N+](=O)[O-])c(C)c([N+](=O)[O-])c(C(C)(C)C)c1[N+](=O)[O-]`, the outcome is “active; multisite active; multisex active”.
